Data taken from US10501464B2, “7-oxo-6-(sulfooxy)-1,6-diazabicyclo[3.2.1]octane-2-carboxamide containing compounds and their use in treating bacterial infections” (WOCKHARDT LIMITED, priority 2015, dated 2019).
Read-outs that look alike come from different tables or passages of the source.

Key:
Test in all cases: Antibacterial activity, MIC by agar dilution (CLSI)
Assay type in all cases: cell-based
E. coli 13352 = conditions: compound tested alone
Protocol: (§1) The biological activity of representative compounds according to the invention against various bacterial strains was investigated. In a typical study, overnight grown bacterial cultures were diluted appropriately and inoculated on the agar media containing doubling dilutions of the test compounds. Observations for growth or no growth was performed after 16-20 hours of incubation at 35±2° C. in the ambient air. The overall procedure was performed as per Clinical and Laboratory Standards Institute (CLSI) recommendations, (Clinical and Laboratory Standards Institute (CLSI), Performance Standards for Antimicrobial Susceptibility Testing, 20th Informational Supplement, M07-A9, Volume 32, No. 2, 2012). Molten Mueller Hinton Agar (BD, USA) containing serial dilutions of each antibacterial agent were poured on to the plates and allowed to solidify. Appropriate suspensions from the freshly grown cultures were prepared in normal saline so that about 10^4CFU/spot of the organism was delivered on to the drug containing agar plates using automated multipoint inoculator (Mast, UK). The plates were incubated in Biochemical oxygen demand (BOD) incubator at 37° C. for 18 hours and then examined for growth.
(§2) Method for the determination of MIC: The Minimum Inhibitory Concentration (MIC) determination for the combinations was carried out in Muller Hinton Agar (MHA) (BD, USA) according to Clinical and Laboratory Standards Institute (CLSI) recommendations, (Clinical and Laboratory Standards Institute (CLSI), Performance Standards for Antimicrobial Susceptibility Testing, 20th Informational Supplement, M 100-S20, Volume 30, No. 1, 2010). In short, the test strains were adjusted to deliver about 10^4CFU per spot with a multipoint inoculator (Applied Quality Services, UK). The plates were poured with MHA containing doubling concentration range of representative compounds according to present invention. The plates were inoculated and were incubated at 35° C. for 18 hour. […] The Table 2 depicts the antibacterial activity profile of compounds according to present invention against various multidrug resistant bacterial strains.

E. coli M 49 = conditions: compound tested alone
Protocol: as §1, §2

E. coli 13353 = conditions: compound tested alone
Protocol: as §1, §2

K. pneumoniae H 522 = conditions: compound tested alone
Protocol: as §1, §2

E. coli 13351 = conditions: compound tested alone
Protocol: as §1, §2

E. coli M 36 = conditions: compound tested alone
Protocol: as §1, §2

E. coli M 138 = conditions: compound tested alone
Protocol: as §1, §2

E. coli H 483 = test system: E. coli H 483
Protocol: as §1, §2

P. mirabilis S 137B = conditions: compound tested alone
Protocol: as §1, §2

[1] = test system: K. pneumoniae ATCC 700603
Protocol: as §1, §2

K. pneumoniae H 525 = conditions: compound tested alone
Protocol: as §1, §2

E. coli M 50 = conditions: compound tested alone
Protocol: as §1, §2

K. pneumoniae H 521 = conditions: compound tested alone
Protocol: as §1, §2

E. coli 7 MP = conditions: compound tested alone
Protocol: as §1, §2

K. pneumoniae H 523 = conditions: compound tested alone
Protocol: as §1, §2

[2] = Escherichia coli, 13352, E. coli 13352, read-out: MIC
[3] = Escherichia coli, M49, E. coli M 49, read-out: MIC
[4] = Escherichia coli, 13353, E. coli 13353, read-out: MIC
[5] = Klebsiella pneumoniae, H522, K. pneumoniae H 522, read-out: MIC
[6] = Escherichia coli, 13351, E. coli 13351, read-out: MIC
[7] = Escherichia coli, M36, E. coli M 36, read-out: MIC
[8] = Escherichia coli, M138, E. coli M 138, read-out: MIC
[9] = Proteus mirabilis, S137B, read-out: MIC
[10] = Klebsiella pneumoniae, ATCC700603, compound tested alone, read-out: MIC
[11] = Klebsiella pneumoniae, H525, K. pneumoniae H 525, read-out: MIC
[12] = Escherichia coli, M50, E. coli M 50, read-out: MIC
[13] = Klebsiella pneumoniae, H521, K. pneumoniae H 521, read-out: MIC
[14] = Escherichia coli, 7MP, read-out: MIC
[15] = Klebsiella pneumoniae, H523, K. pneumoniae H 523, read-out: MIC

Row | MIC (E. coli 13352; [2]) | MIC (E. coli M 49; [3]) | MIC (E. coli 13353; [4]) | MIC (K. pneumoniae H 522; [5]) | MIC (E. coli 13351; [6]) | MIC (E. coli M 36; [7]) | MIC (E. coli M 138; [8]) | MIC (P. mirabilis S 137B; [9]) | MIC [1, 10] | MIC (K. pneumoniae H 525; [11]) | MIC (E. coli M 50; [12]) | MIC (K. pneumoniae H 521; [13]) | MIC (E. coli 7 MP; [14]) | MIC (K. pneumoniae H 523; [15]) | Compound | also measured
1 | – | – | – | – | – | – | – | – | – | – | – | – | – | – | CC(C)(O/N=C(\C(=O)N[C@@H]1C(=O)N2C(C(=O)[O-])=C(C[n+]3ccccc3)CS[C@H]12)c1csc(N)n1)C(=O)O [Ceftazidime, reference compound] | MIC (E. coli 13352; E. coli 13352): >32 µg/mL; MIC (E. coli M 49; E. coli M 49): >32 µg/mL; MIC (E. coli 13353; E. coli 13353): >32 µg/mL; MIC (K. pneumoniae H 522; K. pneumoniae H 522): >32 µg/mL; MIC (E. coli 13351; E. coli 13351): 16 µg/mL; MIC (E. coli M 36; E. coli M 36): >32 µg/mL; MIC (E. coli M 138; E. coli M 138): >32 µg/mL; MIC (E. coli H 483; compound tested alone): >32 µg/mL; MIC (P. mirabilis S 137B): >32 µg/mL; MIC ([1]; compound tested alone): 16 µg/mL; MIC (K. pneumoniae H 525; K. pneumoniae H 525): >32 µg/mL; MIC (E. coli M 50; E. coli M 50): >32 µg/mL; MIC (K. pneumoniae H 521; K. pneumoniae H 521): >32 µg/mL; MIC (E. coli 7 MP): >32 µg/mL; MIC (K. pneumoniae H 523; K. pneumoniae H 523): >32 µg/mL
2 | 2 µg/mL | 8 µg/mL | 2 µg/mL | 4 µg/mL | 4 µg/mL | 2 µg/mL | 2 µg/mL | > 32 µg/mL | > 32 µg/mL | 4 µg/mL | 2 µg/mL | 4 µg/mL | 4 µg/mL | 4 µg/mL | O=C(NOC[C@@H]1C[C@H](n2cnnn2)CN1)[C@@H]1CC[C@@H]2CN1C(=O)N2OS(=O)(=O)O [Example 4] | MIC (E. coli H 483; Escherichia coli, H483, compound tested alone, read-out: MIC): > 32 µg/mL
3 | 2 µg/mL | 4 µg/mL | 1 µg/mL | 2 µg/mL | 2 µg/mL | 1 µg/mL | 1 µg/mL | > 32 µg/mL | > 32 µg/mL | 2 µg/mL | 1 µg/mL | 2 µg/mL | 2 µg/mL | 2 µg/mL | O=C(NOC[C@@H]1C[C@H](n2cncn2)CN1)[C@@H]1CC[C@@H]2CN1C(=O)N2OS(=O)(=O)O [Example 9] | –
4 | 2 µg/mL | 8 µg/mL | 1 µg/mL | 4 µg/mL | 2 µg/mL | 1 µg/mL | 2 µg/mL | > 32 µg/mL | > 32 µg/mL | 4 µg/mL | 1 µg/mL | 4 µg/mL | 4 µg/mL | 4 µg/mL | O=C(NNC(=O)[C@@H]1CC[C@@H]2CN1C(=O)N2OS(=O)(=O)O)[C@@H]1C[C@H](n2ncnn2)CN1 [Example 23] | –
5 | 2 µg/mL | 16 µg/mL | 4 µg/mL | 4 µg/mL | 2 µg/mL | 4 µg/mL | 4 µg/mL | > 32 µg/mL | > 32 µg/mL | 4 µg/mL | 4 µg/mL | 4 µg/mL | 8 µg/mL | 4 µg/mL | O=C(NNC(=O)[C@@H]1CC[C@@H]2CN1C(=O)N2OS(=O)(=O)O)[C@@H]1C[C@H](n2cnnn2)CN1 [Example 24] | –
6 | 1 µg/mL | 8 µg/mL | 0.5 µg/mL | 4 µg/mL | 1 µg/mL | 1 µg/mL | 2 µg/mL | > 32 µg/mL | > 32 µg/mL | 8 µg/mL | 1 µg/mL | 4 µg/mL | 2 µg/mL | 4 µg/mL | O=C(NNC(=O)[C@@H]1CC[C@@H]2CN1C(=O)N2OS(=O)(=O)O)[C@@H]1C[C@H](n2nccn2)CN1 [Example 25] | –
7 | 2 µg/mL | > 32 µg/mL | 2 µg/mL | 8 µg/mL | 2 µg/mL | 4 µg/mL | 4 µg/mL | > 32 µg/mL | > 32 µg/mL | 16 µg/mL | 4 µg/mL | 8 µg/mL | 8 µg/mL | 16 µg/mL | O=C(NNC(=O)[C@@H]1CC[C@@H]2CN1C(=O)N2OS(=O)(=O)O)[C@@H]1C[C@H](n2ccnn2)CN1 [Example 26] | –
8 | 1 µg/mL | > 32 µg/mL | 1 µg/mL | 4 µg/mL | 1 µg/mL | 1 µg/mL | 2 µg/mL | > 32 µg/mL | > 32 µg/mL | 4 µg/mL | 1 µg/mL | 4 µg/mL | 8 µg/mL | 4 µg/mL | O=C(NNC(=O)[C@@H]1CC[C@@H]2CN1C(=O)N2OS(=O)(=O)O)C1C[C@H](n2cccn2)CN1 (stereo partly drawn) [Example 27] | –
9 | – | 8 µg/mL | – | 4 µg/mL | – | – | 2 µg/mL | > 32 µg/mL | > 32 µg/mL | 4 µg/mL | – | 4 µg/mL | – | 4 µg/mL | O=C(NNC(=O)[C@@H]1CC[C@@H]2CN1C(=O)N2OS(=O)(=O)O)C1C[C@H](n2ccnc2)CN1 (stereo partly drawn) [Example 28] | MIC (E. coli 13352; E. coli 13352): 1 µg/mL; MIC (E. coli 13353; E. coli 13353): 1 µg/mL; MIC (E. coli 13351; E. coli 13351): 1 µg/mL; MIC (E. coli M 36; E. coli M 36): 1 µg/mL; MIC (E. coli M 50; E. coli M 50): 2 µg/mL; MIC (E. coli 7 MP): 4 µg/mL
10 | 1 µg/mL | 4 µg/mL | 0.5 µg/mL | 2 µg/mL | 1 µg/mL | 0.5 µg/mL | 1 µg/mL | > 32 µg/mL | > 32 µg/mL | 2 µg/mL | 0.5 µg/mL | 2 µg/mL | 2 µg/mL | 2 µg/mL | O=C(NNC(=O)[C@@H]1CC[C@@H]2CN1C(=O)N2OS(=O)(=O)O)[C@@H]1C[C@H](n2cncn2)CN1 [Example 29] | –
11 | 8 µg/mL | 16 µg/mL | 4 µg/mL | 2 µg/mL | 4 µg/mL | 4 µg/mL | 8 µg/mL | > 32 µg/mL | > 32 µg/mL | 2 µg/mL | 4 µg/mL | 2 µg/mL | 16 µg/mL | 2 µg/mL | O=C(NNC(=O)[C@@H]1CC[C@@H]2CN1C(=O)N2OS(=O)(=O)O)[C@@H]1C[C@H](n2ccnc2)CN1 [Example 30] | –
12 | 4 µg/mL | > 32 µg/mL | 4 µg/mL | 16 µg/mL | 4 µg/mL | 4 µg/mL | 8 µg/mL | > 32 µg/mL | > 32 µg/mL | 8 µg/mL | 8 µg/mL | 16 µg/mL | 16 µg/mL | 16 µg/mL | Cc1nnn([C@@H]2CN[C@H](C(=O)NNC(=O)[C@@H]3CC[C@@H]4CN3C(=O)N4OS(=O)(=O)O)C2)n1 [Example 31] | –
13 | – | – | – | – | – | – | – | – | – | – | – | – | – | – | O=C(NNC(=O)[C@@H]1CC[C@@H]2CN1C(=O)N2OS(=O)(=O)O)[C@@H]1C[C@@H](n2cccn2)CN1 [Example 32] | MIC (E. coli 13352; E. coli 13352): 4 µg/mL; MIC (E. coli M 49; E. coli M 49): 32 µg/mL; MIC (E. coli 13353; E. coli 13353): 4 µg/mL; MIC (K. pneumoniae H 522; K. pneumoniae H 522): 8 µg/mL; MIC (E. coli 13351; E. coli 13351): 4 µg/mL; MIC (E. coli M 36; E. coli M 36): 4 µg/mL; MIC (E. coli M 138; E. coli M 138): 4 µg/mL; MIC (P. mirabilis S 137B): >32 µg/mL; MIC ([1]; compound tested alone): >32 µg/mL; MIC (K. pneumoniae H 525; K. pneumoniae H 525): 8 µg/mL; MIC (E. coli M 50; E. coli M 50): 4 µg/mL; MIC (K. pneumoniae H 521; K. pneumoniae H 521): 8 µg/mL; MIC (E. coli 7 MP): 16 µg/mL; MIC (K. pneumoniae H 523; K. pneumoniae H 523): 8 µg/mL
14 | 4 µg/mL | 16 µg/mL | 4 µg/mL | 4 µg/mL | 4 µg/mL | 2 µg/mL | 4 µg/mL | > 32 µg/mL | > 32 µg/mL | 4 µg/mL | 2 µg/mL | 8 µg/mL | 8 µg/mL | 4 µg/mL | O=C(NNC(=O)[C@@H]1CC[C@@H]2CN1C(=O)N2OS(=O)(=O)O)[C@@H]1C[C@@H](n2ccnc2)CN1 [Example 33] | –
